PubChem BioAssay AID256 (DTP/NCI, 2004)
Several values for one entry are separate records, joined by “and”; a condition that tells them apart may be missing. Equal values may be shown once. Toxic doses and inconclusive results are not listed. Rule for the calls: active = survival T/C of 150% or more; inactive = T/C below 125% in these data.

Test system: CD2F1 mice, L1210 leukemia ip, survival T/C
Experiment: NCI In Vivo Anticancer Drug Screen. Data for tumor model L1210 Leukemia (intraperitoneal) in CD2F1 (CDF1) mice
Conditions: higher = longer survival
In short: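 Mice carrying a transplanted tumor received test compound or vehicle alone. The value is the measurement in the treated group divided by that in the vehicle-treated control group.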

[1] = endpoint: mean survival time, dose: 100.0 mg/kg/injection, schedule: Q04DX002 (ip), vehicle: saline with Tween-80
[2] = endpoint: mean survival time, dose: 200.0 mg/kg/injection, schedule: Q04DX002 (ip), vehicle: saline with Tween-80
[3] = endpoint: mean survival time, dose: 400.0 mg/kg/injection, schedule: Q04DX002 (ip), vehicle: saline with Tween-80
[4] = endpoint: mean survival time, dose: 50.0 mg/kg/injection, schedule: Q01DX009 (ip), vehicle: saline with Tween-80
[5] = endpoint: mean survival time, dose: 100.0 mg/kg/injection, schedule: Q01DX009 (ip), vehicle: saline with Tween-80
[6] = endpoint: mean survival time, dose: 200.0 mg/kg/injection, schedule: Q01DX009 (ip), vehicle: saline with Tween-80
[7] = endpoint: mean survival time, dose: 100.0 mg/kg/injection, schedule: Q01DX001 (ip), vehicle: saline with Tween-80
[8] = endpoint: mean survival time, dose: 200.0 mg/kg/injection, schedule: Q01DX001 (ip), vehicle: saline with Tween-80
[9] = endpoint: mean survival time, dose: 400.0 mg/kg/injection, schedule: Q01DX001 (ip), vehicle: saline with Tween-80
[10] = endpoint: mean survival time, dose: 100.0 mg/kg/injection, schedule: Q04DX003 (ip), vehicle: saline with Tween-80
[11] = endpoint: mean survival time, dose: 200.0 mg/kg/injection, schedule: Q04DX003 (ip), vehicle: saline with Tween-80
[12] = endpoint: mean survival time, dose: 400.0 mg/kg/injection, schedule: Q01DX009 (ip), vehicle: saline with Tween-80
[13] = endpoint: mean survival time, dose: 400.0 mg/kg/injection, schedule: Q04DX003 (ip), vehicle: saline with Tween-80
[14] = endpoint: mean survival time, dose: 100.0 mg/kg/injection, schedule: Q04DX003 (ip), vehicle: saline
[15] = endpoint: mean survival time, dose: 100.0 mg/kg/injection, schedule: Q01DX005 (ip), vehicle: saline
[16] = endpoint: mean survival time, dose: 200.0 mg/kg/injection, schedule: Q01DX005 (ip), vehicle: saline

Measured: T/C

NC(N)=Nc1cccc(OCCCOc2ccccc2)c1
inactive: endpoint: mean survival time, dose: 18.75 mg/kg/injection, schedule: Q01DX001 (ip), vehicle: saline with Tween-80 102 % of control | endpoint: mean survival time, dose: 37.5 mg/kg/injection, schedule: Q01DX001 (ip), vehicle: saline with Tween-80 98 % of control | endpoint: mean survival time, dose: 75.0 mg/kg/injection, schedule: Q01DX001 (ip), vehicle: saline with Tween-80 97 % of control

Cc1[nH]c2ccc(-c3ccccc3)cc2c1CC(=O)OC(C)C
inactive: [1] 97 % of control | [2] 117 % of control | [3] 105 % of control

OCCN=c1c2ccccc2n(O)c2c1ccc1ccccc12
inactive: [4] 104 % of control | [5] 112 % of control | [6] 108 % of control

O=c1[nH]c(-c2ccccc2)c(N=Nc2ccccc2)c(=O)[nH]1
inactive: [7] 89 % of control | [8] 96 % of control | [9] 102 % of control

NC(CC(=O)NC(=O)OCc1ccccc1)C(=O)O (stereo not drawn)
inactive: [5] 100 % of control | [10] 101 % of control | [6] 102 % of control | [11] 101 % of control | [12] 102 % of control | [13] 98 % of control

CCOc1ccc(OCC)c(NC(=O)Nc2ccccc2C)c1
inactive: endpoint: mean survival time, dose: 25.0 mg/kg/injection, schedule: Q04DX002 (ip), vehicle: saline with Tween-80 88 % of control | endpoint: mean survival time, dose: 50.0 mg/kg/injection, schedule: Q04DX002 (ip), vehicle: saline with Tween-80 88 % of control | [1] 90 % of control | [3] 90 % of control

COc1ccc(C(O)c2nnc(C(O)c3ccc(OC)cc3)nn2)cc1 (stereo not drawn)
inactive: [10] 86 % of control | [11] 89 % of control | [13] 92 % of control

Oc1cccc2c1NCCC2
inactive: endpoint: mean survival time, dose: 25.0 mg/kg/injection, schedule: Q04DX003 (ip), vehicle: saline with Tween-80 104 % of control | endpoint: mean survival time, dose: 50.0 mg/kg/injection, schedule: Q04DX003 (ip), vehicle: saline with Tween-80 98 % of control | [10] 91 % of control and 102 % of control

Cc1cnccc1Br
inactive: endpoint: mean survival time, dose: 25.0 mg/kg/injection, schedule: Q01DX009 (ip), vehicle: water 96 % of control | endpoint: mean survival time, dose: 50.0 mg/kg/injection, schedule: Q01DX009 (ip), vehicle: water 96 % of control | endpoint: mean survival time, dose: 100.0 mg/kg/injection, schedule: Q01DX009 (ip), vehicle: water 86 % of control | endpoint: mean survival time, dose: 200.0 mg/kg/injection, schedule: Q01DX009 (ip), vehicle: water 90 % of control

CC(C)CC(Nc1sc([N+](=O)[O-])cc1[N+](=O)[O-])C(=O)O (stereo not drawn)
inactive: [7] 105 % of control | [8] 102 % of control | [9] 107 % of control

O=S(CC(O)c1ccccc1)c1ccccc1 (stereo not drawn)
inactive: [10] 93 % of control | [11] 102 % of control

OC(c1ccccc1)(c1ccccc1)c1nc2ccccc2o1
inactive: [5] 107 % of control | [10] 96 % of control | [6] 100 % of control | [11] 91 % of control | [13] 95 % of control

Cc1cc(C)c(S(=O)(=O)c2ccc(F)cc2)c(C)c1
inactive: endpoint: mean survival time, dose: 100.0 mg/kg/injection, schedule: Q01DX001 (ip), vehicle: saline 100 % of control | [14] 101 % of control | endpoint: mean survival time, dose: 200.0 mg/kg/injection, schedule: Q01DX001 (ip), vehicle: saline 102 % of control | endpoint: mean survival time, dose: 200.0 mg/kg/injection, schedule: Q04DX003 (ip), vehicle: saline 102 % of control | endpoint: mean survival time, dose: 400.0 mg/kg/injection, schedule: Q01DX001 (ip), vehicle: saline 100 % of control | endpoint: mean survival time, dose: 400.0 mg/kg/injection, schedule: Q04DX003 (ip), vehicle: saline 96 % of control

O=C(O)C1CCc2c(cnn2-c2ccc(Cl)cc2)C1 (stereo not drawn)
inactive: [1] 96 % of control | [2] 103 % of control | [3] 103 % of control

Nc1cccc(OCc2ccc([N+](=O)[O-])cc2)c1
inactive: endpoint: mean survival time, dose: 100.0 mg/kg/injection, schedule: Q04DX002 (ip), vehicle: Klucel (hydroxypropylcellulose) (HPC) 86 % of control | endpoint: mean survival time, dose: 200.0 mg/kg/injection, schedule: Q04DX002 (ip), vehicle: Klucel (hydroxypropylcellulose) (HPC) 107 % of control | endpoint: mean survival time, dose: 400.0 mg/kg/injection, schedule: Q04DX002 (ip), vehicle: Klucel (hydroxypropylcellulose) (HPC) 95 % of control

CC(CSc1ccccc1)NCCO (stereo not drawn)
inactive: endpoint: mean survival time, dose: 25.0 mg/kg/injection, schedule: Q04DX003 (ip), vehicle: saline 95 % of control | endpoint: mean survival time, dose: 50.0 mg/kg/injection, schedule: Q04DX003 (ip), vehicle: saline 94 % of control | [14] 100 % of control

CSc1ccccc1C1=CCCCCC1
inactive: [4] 103 % of control | [7] 96 % of control | [5] 93 % of control | [8] 94 % of control | [6] 94 % of control

CSC(=S)NN=C(C)C
inactive: endpoint: mean survival time, dose: 6.25 mg/kg/injection, schedule: Q01DX009 (ip), vehicle: saline sonified 89 % of control | endpoint: mean survival time, dose: 6.25 mg/kg/injection, schedule: Q04DX003 (ip), vehicle: saline with Tween-80 96 % of control | endpoint: mean survival time, dose: 12.5 mg/kg/injection, schedule: Q01DX009 (ip), vehicle: saline sonified 87 % of control | endpoint: mean survival time, dose: 12.5 mg/kg/injection, schedule: Q04DX003 (ip), vehicle: saline with Tween-80 96 % of control

CC(C)(C)OC(=O)N/N=C/c1ccc2c(c1)CCC2
inactive: endpoint: mean survival time, dose: 100.0 mg/kg/injection, schedule: Q01DX001 (ip), vehicle: Klucel (hydroxypropylcellulose) (HPC) 101 % of control | endpoint: mean survival time, dose: 200.0 mg/kg/injection, schedule: Q01DX001 (ip), vehicle: Klucel (hydroxypropylcellulose) (HPC) 101 % of control | endpoint: mean survival time, dose: 400.0 mg/kg/injection, schedule: Q01DX001 (ip), vehicle: Klucel (hydroxypropylcellulose) (HPC) 104 % of control

CC1OC(n2cnc3c(NC(=O)c4ccccc4)ncnc32)C(O)C2OC12 (stereo not drawn)
inactive: endpoint: median survival time, dose: 12.5 mg/kg/injection, schedule: Q01DX005 (ip), vehicle: alkali diluted with water 106 % of control | endpoint: median survival time, dose: 25.0 mg/kg/injection, schedule: Q01DX005 (ip), vehicle: alkali diluted with water 102 % of control | endpoint: median survival time, dose: 50.0 mg/kg/injection, schedule: Q01DX005 (ip), vehicle: alkali diluted with water 108 % of control | endpoint: median survival time, dose: 100.0 mg/kg/injection, schedule: Q01DX005 (ip), vehicle: alkali diluted with water 100 % of control | endpoint: median survival time, dose: 200.0 mg/kg/injection, schedule: Q01DX005 (ip), vehicle: alkali diluted with water 101 % of control

O=c1ccccn1C1CC(O)C(CO)O1 (stereo not drawn)
inactive: [15] 101 % of control | [16] 103 % of control

COc1ccc(CNC(C#N)c2ccccc2)cc1OC (stereo not drawn)
inactive: [5] 97 % of control | [6] 104 % of control | [12] 97 % of control

c1cc2[nH]c3ccncc3c2cn1
inactive: endpoint: mean survival time, dose: 50.0 mg/kg/injection, schedule: Q01DX009 (ip), vehicle: saline sonified 98 % of control | endpoint: mean survival time, dose: 100.0 mg/kg/injection, schedule: Q01DX009 (ip), vehicle: saline sonified 101 % of control

NC(=S)c1c2ccccc2nn1C1OC(CO)C(O)C1O (stereo not drawn)
inactive: [15] 98 % of control | [16] 101 % of control

CC(C)(C)[Si](OC(=O)N(CCCl)N=O)(c1ccccc1)c1ccccc1
inactive: endpoint: mean survival time, dose: 6.25 mg/kg/injection, schedule: Q01DX001 (ip), vehicle: distilled water + Tween-80 98 % of control | endpoint: mean survival time, dose: 12.5 mg/kg/injection, schedule: Q01DX001 (ip), vehicle: distilled water + Tween-80 88 % of control | endpoint: mean survival time, dose: 25.0 mg/kg/injection, schedule: Q01DX001 (ip), vehicle: distilled water + Tween-80 93 % of control | endpoint: mean survival time, dose: 50.0 mg/kg/injection, schedule: Q01DX001 (ip), vehicle: distilled water + Tween-80 88 % of control | endpoint: mean survival time, dose: 100.0 mg/kg/injection, schedule: Q01DX001 (ip), vehicle: distilled water + Tween-80 90 % of control
